These results are taken from patent US20200190090A1, “OREXIN RECEPTOR ANTAGONISTS” (BENEVOLENTAI BIO LIMITED, priority 2017, published 2020).

The target of experiment [1] is T1, human recombinant OX2 (hOX2R) receptor (Homo sapiens, UniProt O43614).
T1 construct: expressed in transfected cells; host or cells: HEK cell line (membranes)
T1 sequence (O43614 1-444): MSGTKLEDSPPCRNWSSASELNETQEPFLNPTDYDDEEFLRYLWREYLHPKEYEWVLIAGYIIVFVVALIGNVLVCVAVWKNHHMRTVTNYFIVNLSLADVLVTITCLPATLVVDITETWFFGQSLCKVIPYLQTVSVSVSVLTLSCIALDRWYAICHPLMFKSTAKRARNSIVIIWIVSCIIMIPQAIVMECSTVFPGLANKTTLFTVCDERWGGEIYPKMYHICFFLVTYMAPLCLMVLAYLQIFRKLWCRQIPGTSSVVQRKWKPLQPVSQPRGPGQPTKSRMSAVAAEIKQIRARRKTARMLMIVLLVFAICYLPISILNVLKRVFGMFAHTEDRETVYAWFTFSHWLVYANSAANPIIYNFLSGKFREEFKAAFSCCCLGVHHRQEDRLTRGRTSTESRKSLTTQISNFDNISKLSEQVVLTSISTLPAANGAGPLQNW
Kind of experiment: Scintillation Proximity binding Assay (SPA), [3H]-EMPA displacement, membranes of HEK cell line transformed with hOX2R. As to conditions: for Ki: 60 min, Cheng-Prusoff from IC50, geometric mean, read-out: hOX2R Binding pKi (60 min) (converted); for Selectivity OX2R/OX1R: selectivity calculated using Ki (Ox2R)/Ki(Ox1R). The procedure: (§1) The in vitro binding affinity of 6-[(3aS,4S,6aR)-5-(2-fluoro-4-methoxybenzoyl)-4-methyl-octahydropyrrolo[3,4-c]pyrrol-2-yl]-2,4-dimethylpyridine-3-carbonitrile 3278/6 (the compound of Example 1) for human recombinant OX1 (hOX1R) and OX2 (hOX2R) receptors was determined using a Scintillation Proximity binding Assay (SPA).
(§2) A 96-well plate SPA was developed using antagonist radioligands (OX-radioligands); [3H]-SB674042 (Langmead et al., 2004; Malherbe et al., 2009a) for hOX1R and [3H]-EMPA (Malherbe et al., 2009b) for hOX2R. Cell membranes were prepared from recombinant cell lines; a CHO cell line transformed with hOX1R (GeneBank accession # NM_001525) and a HEK cell line transformed with hOX2R (GeneBank accession # NM_001526.2).
(§3) On the day of the assay, membranes containing hOX1R or hOX2R were captured onto SPA-beads. All test compounds were dissolved in 100% DMSO as 10 mM stock solutions, and prepared as 8-point semi-log dilution in 100% DMSO immediately prior to assay (final assay range 5 uM to 0.064 nM). The compound of Example 1 was co-administered with the appropriate OX-radioligand, and the SPA-membrane preparation added to initiate the assay. During the assay, any compound of Example 1 that bound to the receptors competed with radioligand and reduced the assay signal. Assay plates were read using PerkinElmer Microbeta2 allowing the binding profile of the compound of Example 1 to be assessed at room temperature (19° C.) over several time points (15, 60, 90, 120, 150 minutes, and 18 hours) in hOX1R and hOX2R assay formats.
(§4) End-point data values were determined as Specific Binding (SB) and expressed as a percentage of control (% SB), with 100% being the SB of OX-radioligand in the absence of competing unlabelled ligand, and 0% being the SB of the relevant OX-radioligand in the presence of an excess of the competing cold/unlabelled ligand (Suvorexant; a dual OXR-antagonist [DORA]).
(§5) TB=Total Bound (in presence of 0.5% DMSO); NSB=Non Specific Bound (in the presence of Suvorexant at 1 μM)=0%;
(§6) SB=Specific Bound (TB-NSB)=100%
(§7) Assay data were used to determine half maximal inhibitory concentration (IC50) using a four-parameter logistic model in XLfit and/or GraphPad Prism v5. IC50 were derived from plots of % SB against log 10 of the concentration of the compound of Example 1. The pKi were calculated from the IC50 using the Cheng-Prusoff correction: […]=IC50/(1+([L]/KD)) where [L] is the radioligand concentration in the displacement assay, and KD is the dissociation constant of the radioligand.
(§8) The Selectivity value is derived from the Ki [Ki (OX2R)/Ki(OX1R)].
(§9) was prepared and tested by analogous methods to those described above in Example 1 and Example 2 in respect of the compound of Example 1.

The target of experiment [2] is T2, human recombinant OX1 (hOX1R) receptor (Homo sapiens, UniProt O43613).
T2 construct: expressed in transfected cells; host or cells: CHO cell line (membranes)
T2 sequence (O43613 1-425): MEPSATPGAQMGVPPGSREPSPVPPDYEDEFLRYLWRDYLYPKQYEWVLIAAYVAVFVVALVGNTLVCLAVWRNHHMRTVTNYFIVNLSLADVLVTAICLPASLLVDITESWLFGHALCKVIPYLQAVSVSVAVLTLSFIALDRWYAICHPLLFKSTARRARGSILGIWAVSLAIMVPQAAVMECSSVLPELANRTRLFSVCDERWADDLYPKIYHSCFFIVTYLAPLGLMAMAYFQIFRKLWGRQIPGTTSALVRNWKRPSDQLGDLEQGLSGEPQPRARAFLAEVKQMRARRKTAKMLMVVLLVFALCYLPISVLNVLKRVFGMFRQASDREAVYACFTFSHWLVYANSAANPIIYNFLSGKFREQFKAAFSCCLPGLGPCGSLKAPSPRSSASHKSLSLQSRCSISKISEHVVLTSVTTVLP
Kind of experiment: Scintillation Proximity binding Assay (SPA), [3H]-SB674042 displacement, membranes of CHO cell line transformed with hOX1R. Conditions: for Ki: 60 min, Cheng-Prusoff from IC50, geometric mean, read-out: hOX1R Binding pKi (60 min) (converted); for IC50: SPA, [3H]-SB674042, room temperature (19° C.), GeoMean, read-out: IC50 OX1R. As for the experimental part:
as §1, §2, §3, §4, §5, §6, §7, §8, §9
In general terms: In a scintillation proximity assay essentially only radioactivity close to the scintillant gives light.

The mark [3] stands for this setting: SPA, [3H]-EMPA, room temperature (19° C.), GeoMean, read-out: IC50 OX2R.
Where [4] appears, read: data at 60 min, read-out: OX2R pIC50 (converted).

The structures appear in SMILES notation. Read-outs that look alike come from different tables or passages of the source.

`COc1ccc(C(=O)N2C[C@@H]3CN(c4cc(C)c(C#N)c(C)n4)C[C@@H]3C2)c(F)c1` [Example A, 6-[(3aS,4S,6aR)-5-(2-fluoro-4-methoxybenzoyl)-octahydropyrrolo[3,4-c]pyrrol-2-yl]-2,4-dimethylpyridine-3-carbonitrile, reference compound]: the figures for the Ki in experiment [1] and in experiment [2] were 85.1 nM and 3630 nM, respectively. Moreover, in experiment [1] (IC50 ratio), the “OX2R Selectivity (IC50 OX1R/OX2R)” value was determined as 52. Moreover, the results for the IC50 in experiment [1] (setting [3]), in experiment [1] (setting [4]) and in experiment [2] were 150 nM, 151 nM and 7840 nM, respectively. Moreover, in experiment [1], the “Selectivity OX2R/OX1R” value is listed as 43.

As for `COc1ccc(C(=O)N2C[C@H]3CN(c4cc(C)c(C#N)c(C)n4)C[C@H]3[C@@H]2C)c(F)c1` [Example 1, 6-[(3aS,4S,6aR)-5-(2-fluoro-4-methoxybenzoyl)-4-methyl-octahydropyrrolo[3,4-c]pyrrol-2-yl]-2,4-dimethylpyridine-3-carbonitrile], in experiment [1], the “affinity for hOX2R (in words)” value is reported as “high affinity”, the Ki was 0.724 nM and the “Selectivity OX2R/OX1R” value is on record as 69. For the same molecule, in experiment [1] (setting [3]), the IC50 was determined as 1.23 nM. Besides, in experiment [1] (comparison), the “affinity for hOX2R compared with comparative Example A (in words)” value is on record as “higher affinity”. In experiment [1] (setting [4]), the IC50 was 1.23 nM. The “hOX2R Selectivity (IC50 hOX2R/hOX1R)” value in experiment [1] (head says IC50 ratio) amounted to 69. For the same molecule, the “selectivity for hOX2R” value in experiment [1] (over hOX1R) was 69 fold. For the same molecule, in experiment [1] (room temperature (19° C.)), the “hOX2R Binding Equilibration Time” value turned out to be 38 min. Also, in experiment [2], the “affinity for hOX1R (in words)” value is “high affinity”, the Ki was 47.9 nM and the IC50 came to 97.7 nM.
